Laboratory results published in patent US11603387B2, “SOCS mimetics for the treatment of diseases” (UNIVERSITY OF FLORIDA RESEARCH FOUNDATION, INC., priority 2014, dated 2023).

Test system: IFNγ
Assay: IFNγ expression by qPCR and ELISA under Th17 inducing conditions
Type: cell-based, mouse
Details: SOCS1-KIR peptide (20 μM)
Method: FIGS. 5A-5D. […] (FIGS. 5A and 5B) SOCS1^+/+ or SOCS1^+/− CD4^+CD25^− T cells were stimulated with αCD3 antibodies alone or with αCD3+SOCS1-KIR peptide (20 μM) for 72 h. (FIG. 5A) CD25 expressing cells were assessed by flow cytometry. Results are representative of 4 independent experiments. (FIG. 5B) Proliferation was assessed by CFSE labeling and flow cytometry, cell counts, and ^3[H] thymidine incorporation. n=4. (FIGS. 5C and 5D) SOCS1^+/+ or SOCS1^+/− CD4^+CD25^− T cells were placed under Th17 inducing conditions in the absence or presence of SOCS1-KIR peptide (20 μM) (FIG. 5C) IFNγ expression, relative to β-actin., was assessed by qPCR (left) and ELISA (right) (n=4). (FIG. 5D) pSTAT1 and STAT1 protein expressions were assessed by western blotting. Results are representative of 4 independent experiments. Statistical comparisons were performed using Mann-Whitney U test. (*P<0.05). iTh17=Th17 inducing conditions, WT=SOCS1^+/+, and HT=SOCS1^+/−.
CD4^+CD25^− T lymphocytes (1×10^5/well) were cultured in triplicate at 37° C. (5% CO2) in RPMI 1640 (Cellgro 10-040-CV) containing 10% FBS (INVITROGEN™ GIBCO®) 1% antibiotic/antimycotic (Herndon, Va.), and 50 μM β-ME (MP Biomedicals, Solon, Ohio). […] Cells were incubated for 72 hours and assessed for Treg differentiation by ICS for Foxp3. […] Cells were collected after 5 days and assessed for activation and Th17 differentiation. […]

DTHFRTFRSHSDYRRI (SOCS1-KIR peptide) [SOCS1 mimetic peptide corresponding to the KIR region of SOCS1]
Reduction in IFNγ protein production (ELISA): 2 fold
Reduction in IFNγ mRNA expression (qPCR relative to β-actin): 2 fold
